# Assay results as given in US20140161786A1, “Therapeutic compositions and related methods” (priority 2012, published 2014).
# Where a SMILES comes first, the peptide text is derived from it.
# Key:
# beta chain of insulin = molecular target: T1, beta chain of insulin (Homo sapiens, UniProt P01308); experiment: Inhibition of DTT induced aggregation of the beta chain of insulin (molecular chaperone function); type: biochemical; conditions: for inhibition of insulin aggregation, L- versus D-amino acids: FIG. 6b/6c; for molecular chaperone function (inhibition of insulin aggregation): pH 4 and pH 7.4; for inhibition of insulin aggregation: pH 7.4 and pH 5
# T1 construct: DTT induced aggregation of the beta chain of insulin
# Procedure: The capacity of the proteins and peptides to inhibit DTT induced aggregation of the beta chain of insulin was assayed using procedures described previously by several authors. See, for example, Hong, D. P. & Fink, A. L. Independent heterologous fibrillation of insulin and its B-chain peptide. Biochemistry 44, 16701-16709, doi:10.1021/bi051658y (2005). Also see, Hong, D. P., Ahmad, A. & Fink, A. L. Fibrillation of human insulin A and B chains. Biochemistry 45, 9342-9353, doi:10.1021/bi0604936 (2006). The aggregation was measured by the increase in absorption at 360 nm as a function of time over twenty minutes.
# To determine whether the ThT staining observed in Experiment 4 (above) correlated with molecular chaperone function, each of the peptides was assayed for its ability to inhibit insulin aggregation. The effect of ThT on insulin aggregation was measured as a control. […] […] See, Nielsen, L. et al. Effect of environmental factors on the kinetics of insulin fibril formation: elucidation of the molecular mechanism. Biochemistry 40, 6036-6046, doi:bi002555c [pii] (2001).
# EAE mice = experiment: EAE mouse model, reduction of paralytic symptoms; type: in vivo
# [1] = Amyloid fibril formation by thioflavin T (ThT) fluorescence; type: physicochemical; conditions: for amyloid fibril formation (ThT staining), L- versus D-amino acids: 100 mM MES pH 7.4, 37° C.; for pH dependent amyloid fibril formation (ThT staining): buffers pH 3 to pH 10, 37° C., fluorescence at 485 nm
# Procedure: The relative amount of amyloid present in each solution was measured by combining solutions of the hexamers (200 mg 50 ml) dissolved in 100 mM MES pH 7.4 and 50 ml of a 1M buffer solution at the appropriate pH (glycine, pH 3; acetate, pH 4; citrate, pH 5; MES, pH 6; Tris, pH 7; Tris, pH 8; glycine, pH 9; bicarbonate, pH 10) and incubated at 37° C. ThT (10 ml of 10 mM solution) was added and the resultant emission fluorescence at 485 nm for each sample after excitation at 440 nm was measured using a SpectraMax 190 fluorescent microtiter plate reader.
# The ability of each hexamer listed in Table 1 to form amyloid fibrils in aqueous buffers was examined. Each of the hexamers (200 mg 50 ml) was added to 100 ml of 100 mM MES pH 7.4 and combined with 50 ml of a 1M buffer solution at the appropriate pH (glycine, pH 3; acetate, pH 4; citrate, pH 5; MES, pH 6; Tris, pH 7; Tris, pH 8; glycine, pH 9; bicarbonate, pH 10) and incubated at 37° C. ThT (10 ml of 10 mM solution) was added and the resultant fluorescence at 485 nm from excitation at 440 nm was measured using a fluorescent plate reader. The peptides can be segregated into sets A-E: an anionic set forming fibrils at pH 3, pH 4, and pH 5 (A), a cationic group forming fibrils only at pH 10 (B), three cationic sequences that form amyloid fibrils at all pHs measured (C), a nonionizable set of sequences weakly binding ThT at all pHs (D), and a hydrophobic set of sequences that bind ThT at all pHs tested (E). Only a fraction of the peptides formed amyloid fibrils when dissolved in PBS pH 7.4, as measured by staining with thioflavin T (ThT). Their differential propensity to form amyloid fibrils was used to help segregate them into functional sets (Table 1).
# With respect the experimental results depicted in FIG. 6: A) L- and D-tau 623-628 and L- and D-Aβ 37-42 (200 μg/50 μl) were each added to 100 μl of 100 mM MES pH 7.4 and incubated at 37° C. ThT (10 μl of 10 μM solution) was added and the resultant fluorescence at 485 nm from excitation at 440 nm was measured using a fluorescent plate reader. The levels of ThT were similar in both sets of hexapeptides. […] D) Groups of ten mice were injected daily intraperitoneally for 10 days with 1 μg of L-tau or D-tau hexapeptides beginning at onset of hindlimb weakness. PBS was injected in littermates as control. Bar represents the duration of the treatment. Values in graph represent mean+/−S.E.M. *p<0.05 for L-tau and ̂p<0.05 for D-tau by Mann-Whitney U test.
# [2] = test system: plasma cytokine levels (IL-6, IL-2, TGF-β, IL-17); experiment: Plasma cytokine levels in EAE mice (multiplex-bead-analysis of 26 cytokines); type: in vivo; conditions: 1 μg of Tau 623-628 or 10 μg of HspB1 daily for two days, bled 12 hours later
# Procedure: EAE was induced by procedures previously described. See, Steinman, L. & Zamvil, S. S. How to successfully apply animal studies in experimental allergic encephalomyelitis to research on multiple sclerosis. Ann Neurol 60, 12-21, doi:10.1002/ana.20913 (2006). […] Sera from EAE mice were collected following two days of treatment with 10 μg HspB1 protein, 1 μg tau 623-628 (VQIVYK)(SEQ ID NO: 123), or PBS. Twenty-six cytokines were analyzed by multiplex-bead-analysis.
# To determine whether a hexamer modulated the plasma cytokine levels equivalent to an intact small heat shock protein, groups of five mice were treated after the onset of hindlimb weakness with daily injections of either 1 μg of Tau 623-628 or 10 μg of HspB1 for two days and bled 12 hours later.
# [3] = mice, 1 μg peptide injected daily from onset of hindlimb weakness, PBS control
# T1 sequence (P01308 25-54 limits assumed): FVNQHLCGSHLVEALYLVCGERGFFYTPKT
compound,measurement,setting,value
"Cc1ccc2c(c1)sc(-c1ccc(N(C)C)cc1)[n+]2C.[Cl-] [ThT, thioflavin T, reference compound]",effect on the rate of insulin aggregation (control),beta chain of insulin; 10 mM ThT,Neither the addition of 10 mM ThT nor ThT bound to Tau 623-628 affected the rate of insulin aggregation
"CC(=O)N[C@@H](CO)C(=O)N[C@@H](CC(N)=O)C(=O)N[C@@H](CCC(N)=O)C(=O)N[C@@H](CC(N)=O)C(=O)N[C@@H](CC(N)=O)C(=O)N[C@@H](Cc1ccccc1)C(N)=O [prion 148-153, SNQNNF] (Ac-SNQNNF-NH2)",reduction of the paralytic symptoms of EAE,"EAE mice; mouse, in vivo",therapeutic
Ac VQIVYK CONH2 [D-tau 623-628],"inhibition of insulin aggregation, L- versus D-amino acids",beta chain of insulin,inhibit insulin aggregation in a dose dependent manner with similar IC50 concentrations
same,"amyloid fibril formation (ThT staining), L- versus D-amino acids",[1],similar
GYVIIK [serum amyloid P 213-218],pH dependent amyloid fibril formation (ThT staining),[1],formed amyloid fibrils in buffers from pH 3-10
same,reduction of the paralytic symptoms of EAE,EAE mice; [3],therapeutic
HspB1: intact small heat shock protein,IL-2 level in serum,[2],smaller reductions
same,IL-6 level in serum,[2],dramatic reduction
same,IL-17 level in serum,[2],smaller reductions
same,TGF-β level in serum,[2],smaller reductions
"L-Aβ 37-42: L-amino acid hexapeptide of FIG. 6A; b76 calls it A beta 35-40 (Ac MVGGVV CONH2) (Ac-MVGGVV-NH2; UniProt P05067 706-711, looked up, fragment)","amyloid fibril formation (ThT staining), L- versus D-amino acids",[1],similar
"LKVKVL [HspB5 89-94, hexamer of HspB5 residues 89-94]",pH dependent amyloid fibril formation (ThT staining),[1],bound ThT only at pH 10
same,reduction of the paralytic symptoms of EAE,EAE mice; [3],effectively reduced the paralytic symptoms of EAE
"MVGGVV (Ac-MVGGVV-NH2) [A beta A4 35-40, Ac MVGGVV CONH2 in b76]","amyloid fibril formation (ThT staining), L- versus D-amino acids",[1],"equivalent, within error"
same,reduction of the paralytic symptoms of EAE,"EAE mice; mice, 1 μg peptide daily, administered in 50% DMSO",therapeutic
NKGAII [A beta A4 27-32],pH dependent amyloid fibril formation (ThT staining),[1],bound ThT only at pH 10
same,reduction of the paralytic symptoms of EAE,EAE mice; [3],therapeutic
SSTNVG [amylin 28-33],reduction of the paralytic symptoms of EAE,EAE mice; [3],therapeutic
"SVNDLV [HspB5 76-81, hexamer of HspB5 residues 76-81]",molecular chaperone function (inhibition of insulin aggregation),beta chain of insulin,molecular chaperone only at pH4 and not in more basic solutions
same,inhibition of insulin aggregation,beta chain of insulin,only effective at pH 5
same,pH dependent amyloid fibril formation (ThT staining),[1],effectively formed amyloid fibrils only in a range of pH 3 to pH 5
same,reduction of the paralytic symptoms of EAE,EAE mice; [3],effectively reduced the paralytic symptoms of EAE
VQIVYK [Tau 623-628],"inhibition of insulin aggregation, L- versus D-amino acids",beta chain of insulin,inhibited insulin aggregation with very similar IC50 values
same,"inhibition of insulin aggregation, L- versus D-amino acids",beta chain of insulin; listed as L-tau,inhibit insulin aggregation in a dose dependent manner with similar IC50 concentrations
same,molecular chaperone function (inhibition of insulin aggregation),beta chain of insulin,inhibited insulin aggregation at pH 4 and pH 7.4
same,inhibition of insulin aggregation,beta chain of insulin,potent inhibitor at both pH 7.4 and pH 5
same,"IC50, inhibition of insulin aggregation","beta chain of insulin; titration, Panel C of FIG. 4",approximately 20 mg
same,IL-2 level in serum,[2],smaller reductions
same,IL-6 level in serum,[2],dramatic reduction
same,IL-17 level in serum,[2],smaller reductions
same,TGF-β level in serum,[2],smaller reductions
same,"amyloid fibril formation (ThT staining), L- versus D-amino acids",[1],"equivalent, within error"
same,"amyloid fibril formation (ThT staining), L- versus D-amino acids",[1]; listed as L-tau 623-628,similar
same,pH dependent amyloid fibril formation (ThT staining),[1],formed amyloid fibrils in buffers from pH 3-10
same,reduction of the paralytic symptoms of EAE,EAE mice; [3],effectively reduced the paralytic symptoms of EAE
"amyloid beta A4 16-21: lysine-containing hexamer of amyloid beta A4 residues 16-21 (KLVFFA; Amyloid-beta protein 42; UniProt P05067 687-692, looked up, fragment)",pH dependent amyloid fibril formation (ThT staining),[1],formed amyloid fibrils in buffers from pH 3-10
"insulin A chain 12-17: hexamer of insulin A chain residues 12-17, acidic residue, sequence only in Table 1 image",molecular chaperone function (inhibition of insulin aggregation),beta chain of insulin,"molecular chaperones at pH 4, but not at pH 7.4"
same,pH dependent amyloid fibril formation (ThT staining),[1],effectively formed amyloid fibrils only in a range of pH 3 to pH 5
"insulin B chain 11-16: hexamer of insulin B chain residues 11-16, acidic residue, sequence only in Table 1 image",molecular chaperone function (inhibition of insulin aggregation),beta chain of insulin,"molecular chaperones at pH 4, but not at pH 7.4"
same,pH dependent amyloid fibril formation (ThT staining),[1],effectively formed amyloid fibrils only in a range of pH 3 to pH 5
same,reduction of the paralytic symptoms of EAE,EAE mice; [3],did not statistically significantly reduce the symptoms of EAE
